Assay type in all cases: cell-based
The subject of one experiment is A549 cells. Nature of the experiment: CCK-8 antiproliferation assay, A549. The settings on record: Homo sapiens, 20 μM, 48 h, CCK-8, mean ± SD, read-out: Inhibition Rate (%) at 20 μM, A549. The method, then:
(§1) Human lung carcinoma cell lines A549, human cervical cancer cell lines HeLa, human prostate cancer cell lines PC3, human colorectal carcinoma cell lines HCT116, and human liver cells L02 were purchased from the Chinese Academy of Sciences Shanghai Cell Bank (Shanghai, China). HeLa, A549, PC3, HCT116, and L02 cells were cultured in DMEM Dulbecco’s Modified Eagle Medium (DMEM; Gibco Inc., Gaithersburg, MD, USA). All cultures were provided with 10% fetal bovine serum (FBS; YHSM, Beijing, China), 100 IU/mL penicillin, and 100 μg/mL streptomycin, and cells were incubated at 37 °C in an atmosphere of 5% CO2.
(§2) Cell viability was determined using a CCK-8 kit (Apexbio, Houston, TX, USA). […] Subsequently, absorbance was assessed at 450 nm. Three duplicates were set in each group.
(§3) All synthesized quinoxalines compounds were tested for in vitro cytotoxicity against four cancer cell lines (HeLa, PC3, A549, and HCT116). The inhibitory effects of these compounds were evaluated using the CCK-8 assay after treatment with 20 μM of each compound. […] The species of phenyl substituents have a significant effect on the activity. […] By comparison, hydrophobic substitution at the phenyl ring gave derivatives with relatively low potency (QW7–8). In addition, large substituents on the phenyl ring exerted an unfavorable influence on the potency of the compounds (QW8 and QW16).
A general note: Formazan colour is commonly taken as a measure of viable cells.

In the next experiment the test system is HCT116 cells. Nature of the experiment: CCK-8 antiproliferation assay, HCT116. Particulars: Homo sapiens, HCT-116; 20 μM, 48 h, CCK-8, mean ± SD; read-out: Inhibition Rate (%) at 20 μM, HCT116. How it is done: as §1, §2, §3
The next experiment relates to HeLa cells. The experiment is described as follows: CCK-8 antiproliferation assay, HeLa. Particulars: Homo sapiens; 20 μM, 48 h, CCK-8, mean ± SD; read-out: Inhibition Rate (%) at 20 μM, HeLa. The method, then:
as §1, §2, §3

For the next experiment, the system named is PC3 cells. Nature of the experiment: CCK-8 antiproliferation assay, PC3. Particulars: Homo sapiens, PC-3; 20 μM, 48 h, CCK-8, mean ± SD; read-out: Inhibition Rate (%) at 20 μM, PC3. The method, then:
as §1, §2, §3

A word on the inhibition: it is the change of the read-out against control, counted positive when it falls. `COc1cc(-c2cc(OC)c3ccccc3c2OC)c(OC)cc1-c1ccc(/C=N/NC(=O)c2ccc(O)cc2)o1` [QW20, (E)-N’-((5-(4-(1,4-dimethoxynaphthalen-2-yl)-2,5-dimethoxyphenyl)furan-2-yl)methylene)-4-hydroxybenzohydrazide]: the inhibition at 20 µM was found to be 18.73 ± 0.1% in the experiment on A549 cells, 48.5 ± 0.01% with HCT116 cells, 22.5 ± 0.25% in the experiment with HeLa cells and 15.6 ± 0.19% in the experiment on PC3 cells.

Regarding `COc1cc(-c2cc(OC)c3ccccc3c2OC)c(OC)cc1-c1ccc(/C=N/NC(=O)c2ccccc2)o1` [QW18, (E)-N’-((5-(4-(1,4-dimethoxynaphthalen-2-yl)-2,5-dimethoxyphenyl)furan-2-yl)methylene)benzohydrazide], the inhibition at 20 µM was determined as 8.82 ± 0.08% in the experiment with A549 cells, 10.9 ± 0.46% in the experiment with HCT116 cells, 4.3 ± 0.45% in the experiment with HeLa cells and 8.09 ± 0.13% with PC3 cells.

With `COc1cc(-c2ccc(/C=N/NC(=O)c3ccc(O)cc3)o2)c(OC)cc1-c1cnc2ccccc2n1` [QW4, (E)-N’-((5-(2,5-dimethoxy-4-(quinoxalin-2-yl)phenyl)furan-2-yl)methylene)-4-hydroxybenzohydrazide], the inhibition at 20 µM with A549 cells turned out to be 25.5 ± 0.62%; with HCT116 cells it was 30.7 ± 0.04%; in the experiment on HeLa cells, 44.29 ± 0.05%; with PC3 cells it was 38.74 ± 0.2%.

`COc1cc(-c2ccc(/C=N/NC(=O)c3cccc(C)c3)o2)c(OC)cc1-c1ccc2nccnc2c1` [QW15, (E)-N’-((5-(2,5-dimethoxy-4-(quinoxalin-6-yl)phenyl)furan-2-yl)methylene)-3-methylbenzohydrazide]: the inhibition at 20 µM came out at 9.44 ± 0.39% with A549 cells, 18.8 ± 0.54% with HCT116 cells, 14.26 ± 0.12% in the experiment with HeLa cells and 13.77 ± 0.12% with PC3 cells.

On to `COc1cc(-c2ccc(/C=N/NC(=O)c3ccc(-c4ccccc4)cc3)o2)c(OC)cc1-c1ccc2nccnc2c1` [QW16, (E)-N’-((5-(2,5-dimethoxy-4-(quinoxalin-6-yl)phenyl)furan-2-yl)methylene)-[1,1’-biphenyl]-4-carbohydrazide], for which the inhibition at 20 µM in the experiment with A549 cells came to 4.12 ± 0.33%; in the experiment on HCT116 cells, 41.48 ± 0.05%; with HeLa cells, 10.93 ± 0.04%; with PC3 cells it was 9.37 ± 0.09%.

On to `COc1cc(-c2ccc(/C=N/NC(=O)c3ccc(F)cc3)o2)c(OC)cc1-c1cnc2ccccc2n1` [QW1, (E)-N’-((5-(2,5-dimethoxy-4-(quinoxalin-2-yl)phenyl)furan-2-yl)methylene)-4-fluorobenzohydrazide], for which the inhibition at 20 µM with A549 cells worked out at 7.47 ± 0.52%; with HCT116 cells, 15.33 ± 0.14%; in the experiment on HeLa cells, 5.14 ± 0.13%; in the experiment on PC3 cells, 5.13 ± 0.59%.

In the case of `COc1cc(-c2cc(OC)c3ccccc3c2OC)c(OC)cc1-c1ccc(/C=N/NC(=O)c2cccnc2)o1` [QW19, (E)-N’-((5-(4-(1,4-dimethoxynaphthalen-2-yl)-2,5-dimethoxyphenyl)furan-2-yl)methylene)nicotinohydrazide], the inhibition at 20 µM with A549 cells stood at 0.15 ± 0.35%; in the experiment on HCT116 cells, 4.61 ± 0.66%; in the experiment on HeLa cells it was 9.56 ± 0.65%; with PC3 cells, 8.37 ± 0.21%.

As for `COc1cc(-c2cc(OC)c3ccccc3c2OC)c(OC)cc1-c1ccc(/C=N/NC(=O)c2ccc(-c3ccccc3)cc2)o1` [QW24, (E)-N’-((5-(4-(1,4-dimethoxynaphthalen-2-yl)-2,5-dimethoxyphenyl)furan-2-yl)methylene)-[1,1’-biphenyl]-4-carbohydrazide], the inhibition at 20 µM in the experiment on A549 cells is 6 ± 0.1%; in the experiment on HCT116 cells it was 4.39 ± 0.52%; in the experiment with HeLa cells it was 4.96 ± 0.61%; with PC3 cells, 2.4 ± 0.07%.

As to `COc1cc(-c2ccc(/C=N/NC(=O)c3ccncc3)o2)c(OC)cc1-c1ccc2nccnc2c1` [QW13, (E)-N’-((5-(2,5-dimethoxy-4-(quinoxalin-6-yl)phenyl)furan-2-yl)methylene)isonicotinohydrazide], the inhibition at 20 µM with A549 cells worked out at 3.96 ± 0.59%; in the experiment with HCT116 cells, 23.2 ± 0.27%; in the experiment with HeLa cells, 37.71 ± 0.12%; in the experiment on PC3 cells, 18.5 ± 0.3%.

For the molecule `COc1cc(-c2ccc(/C=N/NC(=O)c3cccnc3)o2)c(OC)cc1-c1ccc2nccnc2c1` [QW11, (E)-N’-((5-(2,5-dimethoxy-4-(quinoxalin-6-yl)phenyl)furan-2-yl)methylene)nicotinohydrazide], the inhibition at 20 µM in the experiment on A549 cells turned out to be 17.27 ± 0.03%; in the experiment with HCT116 cells, 39.9 ± 0.68%; with HeLa cells, 45.5 ± 0.61%; in the experiment with PC3 cells, 29.35 ± 0.18%.

Turning to `COc1cc(-c2ccc(/C=N/NC(=O)c3ccccc3)o2)c(OC)cc1-c1cnc2ccccc2n1` [QW2, (E)-N’-((5-(2,5-dimethoxy-4-(quinoxalin-2-yl)phenyl)furan-2-yl)methylene)benzohydrazide], the inhibition at 20 µM in the experiment on A549 cells worked out at 6.46 ± 0.43%; with HCT116 cells, 17.8 ± 0.67%; with HeLa cells, 8.64 ± 0.26%; with PC3 cells it was 1.76 ± 0.23%.

`COc1cc(-c2ccc(/C=N/NC(=O)c3ccccc3)o2)c(OC)cc1-c1ccc2nccnc2c1` [QW10, (E)-N’-((5-(2,5-dimethoxy-4-(quinoxalin-6-yl)phenyl)furan-2-yl)methylene)benzohydrazide]: the inhibition at 20 µM with A549 cells was determined as 8.82 ± 0.08%; with HCT116 cells it was 10.9 ± 0.46%; in the experiment with HeLa cells it was 4.3 ± 0.45%; in the experiment with PC3 cells it was 8.09 ± 0.13%.

Regarding `COc1cc(-c2cc(OC)c3ccccc3c2OC)c(OC)cc1-c1ccc(/C=N/NC(=O)c2ccncc2)o1` [QW21, (E)-N’-((5-(4-(1,4-dimethoxynaphthalen-2-yl)-2,5-dimethoxyphenyl)furan-2-yl)methylene)isonicotinohydrazide], the inhibition at 20 µM is 0.68 ± 0.36% with A549 cells, 4.46 ± 0.24% in the experiment on HCT116 cells, 0.36 ± 0.6% with HeLa cells and 0.12 ± 0.2% with PC3 cells.

Take `COc1cc(-c2cc(OC)c3ccccc3c2OC)c(OC)cc1-c1ccc(/C=N/NC(=O)c2cccc(C)c2)o1` [QW23, (E)-N’-((5-(4-(1,4-dimethoxynaphthalen-2-yl)-2,5-dimethoxyphenyl)furan-2-yl)methylene)-3-methylbenzohydrazide]: the inhibition at 20 µM in the experiment with A549 cells turned out to be 1.87 ± 0.33%; with HCT116 cells, 2.26 ± 0.03%; in the experiment with HeLa cells it was 0.84 ± 0.64%; with PC3 cells it was 2.99 ± 0.25%.

As to `COc1cc(-c2ccc(/C=N/NC(=O)c3ccncc3)o2)c(OC)cc1-c1cnc2ccccc2n1` [QW5, (E)-N’-((5-(2,5-dimethoxy-4-(quinoxalin-2-yl)phenyl)furan-2-yl)methylene)isonicotinohydrazide], the inhibition at 20 µM was 18.52 ± 0.18% with A549 cells, 30.6 ± 0.51% with HCT116 cells, 31.13 ± 0.23% in the experiment with HeLa cells and 26 ± 0.37% in the experiment on PC3 cells.

With `COc1cc(-c2ccc(/C=N/NC(=O)c3ccccn3)o2)c(OC)cc1-c1ccc2nccnc2c1` [QW14, (E)-N’-((5-(2,5-dimethoxy-4-(quinoxalin-6-yl)phenyl)furan-2-yl)methylene)picolinohydrazide], the inhibition at 20 µM with A549 cells turned out to be 5.46 ± 0.7%; with HCT116 cells, 30.5 ± 0.55%; in the experiment with HeLa cells it was 8.67 ± 0.24%; in the experiment with PC3 cells, 12.9 ± 0.31%.

For `COc1cc(-c2ccc(/C=N/NC(=O)c3cccnc3)o2)c(OC)cc1-c1cnc2ccccc2n1` [QW3, (E)-N’-((5-(2,5-dimethoxy-4-(quinoxalin-2-yl)phenyl)furan-2-yl)methylene)nicotinohydrazide], the inhibition at 20 µM was 11.63 ± 0.03% with A549 cells, 33.8 ± 0.41% in the experiment on HCT116 cells, 38.81 ± 0.3% in the experiment with HeLa cells and 32.6 ± 0.65% with PC3 cells.

Regarding `COc1cc(-c2ccc(/C=N/NC(=O)c3cccc(C)c3)o2)c(OC)cc1-c1cnc2ccccc2n1` [QW7, (E)-N’-((5-(2,5-dimethoxy-4-(quinoxalin-2-yl)phenyl)furan-2-yl)methylene)-3-methylbenzohydrazide], the inhibition at 20 µM is 4.31 ± 0.08% with A549 cells, 2.18 ± 0.38% in the experiment on HCT116 cells, 8.46 ± 0.42% with HeLa cells and 4.73 ± 0.01% in the experiment on PC3 cells.

For the molecule `COc1cc(-c2ccc(/C=N/NC(=O)c3ccc(F)cc3)o2)c(OC)cc1-c1ccc2nccnc2c1` [QW9, (E)-N’-((5-(2,5-dimethoxy-4-(quinoxalin-6-yl)phenyl)furan-2-yl)methylene)-4-fluorobenzohydrazide], the inhibition at 20 µM in the experiment on A549 cells is 1.16 ± 0.63%; in the experiment with HCT116 cells, 29.9 ± 0.57%; with HeLa cells, 17.1 ± 0.41%; in the experiment on PC3 cells it was 3.98 ± 0.49%.

Consider `COc1cc(-c2ccc(/C=N/NC(=O)c3ccc(-c4ccccc4)cc3)o2)c(OC)cc1-c1cnc2ccccc2n1` [QW8, (E)-N’-((5-(2,5-dimethoxy-4-(quinoxalin-2-yl)phenyl)furan-2-yl)methylene)-[1,1’-biphenyl]-4-carbohydrazide], for which the inhibition at 20 µM in the experiment with A549 cells was found to be 5.8 ± 0.02%; in the experiment with HCT116 cells, 20.92 ± 0.05%; in the experiment with HeLa cells, 3.46 ± 0.17%; with PC3 cells it was 11.8 ± 0.56%.

Values taken from paper PMC9698340, “Discovery and SAR Study of Quinoxaline–Arylfuran Derivatives as a New Class of Antitumor Agents” (Pharmaceutics, 2022).
